What is called IC50 is the concentration that inhibits the measured activity by half.

Data on twelve molecules can be found in ChEMBL document CHEMBL4673345 (J Med Chem, 2020).

Data set [1] can be described thus: Toxicity in human SW-620/Ad300 cells assessed as cell viability at 20 uM incubated for 72 hrs by MTT assay. The settings on record: read-out: Activity. The format is cell-based. (In general: Formazan colour is commonly taken as a measure of viable cells.)
A short description of data set [2]: Inhibition of ABCB1 in multidrug-resistant human SW620/Ad300 cells assessed as increase in reversal of resistance to paclitaxel-induced cytotoxicity by measuring paclitaxel IC50 pre-incubated for 4 hrs followed by paclitaxel addition and measured after 72 hrs by MTT assay (reference value: 4.23 +/- 0.6 uM).
Data set [3] has as its system SW-620. Kind of data set: Potentiation of PTX-induced antitumor activity against human SW620/Ad300 cells xenografted in BALB/c mouse assessed as reduction in tumor volume at 20 mg/kg/day, ig for 21 days relative to PTX alone. As to conditions: time 21.0 day. The format is functional, organism-based. For orientation: A xenograft is tissue or cells of one species grown in another, often human tumour cells in immunodeficient mice.

For data set [4], the target named is T1, ATP-dependent translocase ABCB1 (Homo sapiens, UniProt P08183). Kind of data set: Stabilization of ABCB1 in human SW620/Ad300 cells assessed as inhibition of high temperature-induced ABCB1 protein degradation at 200 uM incubated for 30 mins by cellular thermal shift assay. It counts as cell-based. As to conditions: sw-620, 0.5 h.
T1 sequence (P08183 whole entry): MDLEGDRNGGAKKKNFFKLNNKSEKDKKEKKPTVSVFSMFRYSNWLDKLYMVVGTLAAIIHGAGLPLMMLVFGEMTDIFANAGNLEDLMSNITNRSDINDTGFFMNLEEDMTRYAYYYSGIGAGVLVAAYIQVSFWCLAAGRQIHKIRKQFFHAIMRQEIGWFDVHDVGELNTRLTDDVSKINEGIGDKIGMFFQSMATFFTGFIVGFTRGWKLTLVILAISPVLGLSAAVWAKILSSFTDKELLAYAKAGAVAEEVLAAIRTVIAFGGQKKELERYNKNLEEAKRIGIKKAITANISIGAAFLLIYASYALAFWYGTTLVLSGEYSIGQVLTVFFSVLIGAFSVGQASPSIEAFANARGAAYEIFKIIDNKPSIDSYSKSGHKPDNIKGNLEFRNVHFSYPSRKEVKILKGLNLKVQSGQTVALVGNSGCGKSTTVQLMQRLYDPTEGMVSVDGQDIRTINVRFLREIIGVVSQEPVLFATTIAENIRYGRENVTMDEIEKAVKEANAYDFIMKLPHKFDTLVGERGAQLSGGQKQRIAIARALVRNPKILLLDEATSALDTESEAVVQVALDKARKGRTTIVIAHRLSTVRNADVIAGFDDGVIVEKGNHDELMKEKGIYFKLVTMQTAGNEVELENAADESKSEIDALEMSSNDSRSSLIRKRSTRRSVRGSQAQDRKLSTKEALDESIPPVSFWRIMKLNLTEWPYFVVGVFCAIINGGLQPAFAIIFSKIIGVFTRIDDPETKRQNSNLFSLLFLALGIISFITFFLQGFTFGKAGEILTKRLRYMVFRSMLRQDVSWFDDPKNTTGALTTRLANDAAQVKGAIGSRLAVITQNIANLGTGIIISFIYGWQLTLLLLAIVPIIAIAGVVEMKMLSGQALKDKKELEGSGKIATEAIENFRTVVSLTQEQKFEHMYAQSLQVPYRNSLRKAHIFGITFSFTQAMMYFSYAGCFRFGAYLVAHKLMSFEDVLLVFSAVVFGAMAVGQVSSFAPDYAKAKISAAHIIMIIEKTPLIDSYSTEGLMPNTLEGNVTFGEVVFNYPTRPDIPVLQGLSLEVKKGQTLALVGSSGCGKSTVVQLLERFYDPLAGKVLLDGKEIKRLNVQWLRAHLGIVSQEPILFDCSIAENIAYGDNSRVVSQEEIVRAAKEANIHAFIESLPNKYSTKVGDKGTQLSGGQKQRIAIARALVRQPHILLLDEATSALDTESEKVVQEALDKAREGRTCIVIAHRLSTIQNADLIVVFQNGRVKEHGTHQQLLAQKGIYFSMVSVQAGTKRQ
The nature of data set [5]: Reversal of resistance to paclitaxel-induced cytotoxicity against human SW620 cells by measuring reduction in paclitaxel IC50 at 20 uM pre-incubated for 4 hrs followed by paclitaxel addition and measured after 72 hrs by MTT assay. The format is functional, SW-620. As to conditions: time 76 hrs.
For data set [6], the system named is SW-620. Nature of the data set: Effect on intracellular PTX concentration in human SW620 cells at 20 uM pre-incubated for 4 hrs followed by PTX addition and measured after 2 hrs by liquid scintillation counting analysis. It counts as functional, cell-based. The settings on record: time 6.0 hrs.
Data set [7] in a line: Reversal of resistance to paclitaxel-induced cytotoxicity in HEK293 cells assessed as reduction in paclitaxel IC50 at 20 uM pre-incubated for 4 hrs followed by paclitaxel addition and measured after 72 hrs by MTT assay. It counts as functional, Homo sapiens. As to conditions: time 76 hrs.
Data set [8] concerns the target Multidrug resistance-associated protein 1 (Homo sapiens, UniProt P33527). Kind of data set: Stabilization of ABCC1 in human SW620/Ad300 cells assessed as inhibition of high temperature-induced ABCB1 protein degradation at 200 uM incubated for 30 mins by cellular thermal shift assay. As to conditions: sw-620, 0.5 h. The format is cell-based.
Data set [9] is described as follows: Reversal of resistance to paclitaxel-induced cytotoxicity against human SW620 cells by measuring reduction in paclitaxel IC50 at 10 uM pre-incubated for 4 hrs followed by paclitaxel addition and measured after 72 hrs by MTT assay. The format is functional, SW-620. The settings on record: time 76 hrs.
Data set [10] has as its system SW-620. Nature of the data set: Inhibition of [3H]PTX efflux in human SW620 cells at 20 uM pre-incubated for 4 hrs followed by PTX addition and measured after 2 hrs by liquid scintillation counting analysis. It counts as functional, cell-based. The settings on record: time 6.0 hrs.
The test system of data set [11] is SW-620. Nature of the data set: Effect on ABCB1 subcellular localization in human SW620/Ad300 cells at 20 uM incubated for 72 hrs by Western blotting analysis. It counts as functional, cell-based. For orientation: Immunoblotting shows a protein as a band on a membrane.
Another data set deals with CYP3A4 (Homo sapiens, UniProt P08684). Kind of data set: Activation of CYP3A4 in human liver microsomes at 20 uM after 30 mins in presence of CYP3A4 substrate/NADP+ by fluorescence based assay. As to conditions: read-out: FC. It counts as ADME.
Sequence of CYP3A4 (P08684 whole entry): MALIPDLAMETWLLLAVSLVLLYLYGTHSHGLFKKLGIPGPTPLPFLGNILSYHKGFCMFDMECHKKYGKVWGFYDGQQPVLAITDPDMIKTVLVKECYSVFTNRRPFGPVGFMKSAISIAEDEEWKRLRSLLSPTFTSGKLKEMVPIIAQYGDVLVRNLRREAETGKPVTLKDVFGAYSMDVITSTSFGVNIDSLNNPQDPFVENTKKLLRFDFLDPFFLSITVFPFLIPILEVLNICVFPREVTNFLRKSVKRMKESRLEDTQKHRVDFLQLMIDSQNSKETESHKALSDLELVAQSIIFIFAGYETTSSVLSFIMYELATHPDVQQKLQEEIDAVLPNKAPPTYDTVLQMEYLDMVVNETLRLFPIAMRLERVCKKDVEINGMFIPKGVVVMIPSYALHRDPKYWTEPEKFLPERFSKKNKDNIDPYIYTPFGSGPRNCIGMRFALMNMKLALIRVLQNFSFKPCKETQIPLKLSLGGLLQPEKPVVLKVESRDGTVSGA
Data set [12] deals with SW-620. Kind of data set: Antitumor activity against human SW620/Ad300 cells xenografted in BALB/c mouse assessed as induction of tumor apoptosis by measuring nuclear pyknosis at 20 mg/kg/day, ig for 21 days by TUNEL assay. The format is functional, organism-based. The settings on record: time 21.0 day.
Data set [13] has as its system SW-620. Kind of data set: Potentiation of PTX-induced antitumor activity against human SW620/Ad300 cells xenografted in BALB/c mouse assessed as reduction in tumor weight at 20 mg/kg/day, ig for 21 days relative to PTX alone. As to conditions: time 21.0 day. It counts as functional, organism-based.
Data set [14] in a line: Toxicity in BALB/c mouse xenografted with human SW620/Ad300 cells assessed as induction of liver injury at 20 mg/kg/day, ig by H and E staining based assay. The format is organism-based. As to conditions: in vivo, po.
Another data set addresses Cytochrome P450 3A4 (Homo sapiens, UniProt P08684). Kind of data set: Activation of CYP3A4 in human liver microsomes at 30 uM incubated for 10 mins in presence of CYP3A4 substrate/NADP+ by fluorescence based assay. The format is ADME.
Data set [15] has as its system SW-620. Nature of the data set: Antitumor activity against human SW620/Ad300 cells xenografted in BALB/c mouse assessed as induction of tumor death by measuring nuclear pyknosis at 20 mg/kg/day, ig for 21 days by H and E staining based assay. The format is functional, organism-based. As to conditions: time 21.0 day.
Data set [16] can be described thus: Reversal of resistance to paclitaxel-induced cytotoxicity in human KB-3-1 cells assessed as reduction in paclitaxel IC50 at 20 uM pre-incubated for 4 hrs followed by paclitaxel addition and measured after 72 hrs by MTT assay. It counts as functional. As to conditions: time 76 hrs.
Data set [17] deals with T1, ATP-dependent translocase ABCB1. Nature of the data set: Stimulation of ABCB1 ATPase activity (unknown origin) assessed as increase in inorganic phosphate release at 5 to 45 uM incubated for 20 mins in presence of Mg-ATP by spectrophotometry. The settings on record: dose 5-45 µM.
Data set [18] deals with SW-620. Nature of the data set: Effect on ABCB1 protein expression in human SW620/Ad300 cells at 20 uM incubated for 72 hrs by Western blotting analysis. It counts as functional, cell-based.
Data set [19] is described as follows: Reversal of resistance to paclitaxel-induced cytotoxicity in human KB-3-1 cells assessed as reduction in paclitaxel IC50 at 10 uM pre-incubated for 4 hrs followed by paclitaxel addition and measured after 72 hrs by MTT assay. It counts as functional. The settings on record: time 76 hrs.
A short description of data set [20]: Reversal of resistance to paclitaxel-induced cytotoxicity in HEK293 cells assessed as reduction in paclitaxel IC50 at 10 uM pre-incubated for 4 hrs followed by paclitaxel addition and measured after 72 hrs by MTT assay. It counts as functional, Homo sapiens. The settings on record: time 76 hrs.
The nature of data set [21]: Toxicity in BALB/c mouse xenografted with human SW620/Ad300 cells assessed as induction of mortality at 20 mg/kg/day, ig. It counts as organism-based. As to conditions: in vivo, po.
Data set [22] concerns SW-620. Nature of the data set: Antitumor activity against human SW620/Ad300 cells xenografted in BALB/c mouse assessed as reduction in tumor volume at 20 mg/kg/day, ig for 21 days. The format is functional, organism-based. As to conditions: time 21.0 day.
Data set [23] is described as follows: Toxicity in BALB/c mouse xenografted with human SW620/Ad300 cells assessed as effect on body weight changes at 20 mg/kg/day, ig. It counts as organism-based. As to conditions: in vivo, po.
Data set [24] concerns SW-620. Kind of data set: Effect on intracellular PTX concentration in human SW620 cells at 4 uM pre-incubated for 4 hrs followed by PTX addition and measured after 2 hrs by liquid scintillation counting analysis. It counts as functional, cell-based. As to conditions: time 6.0 hrs.
Data set [25] concerns SW-620. The settings on record: Homo sapiens, dose 6.0 mg/kg/day, time 21.0 day.

Molecules are shown by their SMILES. Activity calls are given as the source filed them. The rule behind the calls is not given here.

Sequence of Cytochrome P450 3A4 (P08684 whole entry): as above
Sequence of Multidrug resistance-associated protein 1 (P33527 whole entry): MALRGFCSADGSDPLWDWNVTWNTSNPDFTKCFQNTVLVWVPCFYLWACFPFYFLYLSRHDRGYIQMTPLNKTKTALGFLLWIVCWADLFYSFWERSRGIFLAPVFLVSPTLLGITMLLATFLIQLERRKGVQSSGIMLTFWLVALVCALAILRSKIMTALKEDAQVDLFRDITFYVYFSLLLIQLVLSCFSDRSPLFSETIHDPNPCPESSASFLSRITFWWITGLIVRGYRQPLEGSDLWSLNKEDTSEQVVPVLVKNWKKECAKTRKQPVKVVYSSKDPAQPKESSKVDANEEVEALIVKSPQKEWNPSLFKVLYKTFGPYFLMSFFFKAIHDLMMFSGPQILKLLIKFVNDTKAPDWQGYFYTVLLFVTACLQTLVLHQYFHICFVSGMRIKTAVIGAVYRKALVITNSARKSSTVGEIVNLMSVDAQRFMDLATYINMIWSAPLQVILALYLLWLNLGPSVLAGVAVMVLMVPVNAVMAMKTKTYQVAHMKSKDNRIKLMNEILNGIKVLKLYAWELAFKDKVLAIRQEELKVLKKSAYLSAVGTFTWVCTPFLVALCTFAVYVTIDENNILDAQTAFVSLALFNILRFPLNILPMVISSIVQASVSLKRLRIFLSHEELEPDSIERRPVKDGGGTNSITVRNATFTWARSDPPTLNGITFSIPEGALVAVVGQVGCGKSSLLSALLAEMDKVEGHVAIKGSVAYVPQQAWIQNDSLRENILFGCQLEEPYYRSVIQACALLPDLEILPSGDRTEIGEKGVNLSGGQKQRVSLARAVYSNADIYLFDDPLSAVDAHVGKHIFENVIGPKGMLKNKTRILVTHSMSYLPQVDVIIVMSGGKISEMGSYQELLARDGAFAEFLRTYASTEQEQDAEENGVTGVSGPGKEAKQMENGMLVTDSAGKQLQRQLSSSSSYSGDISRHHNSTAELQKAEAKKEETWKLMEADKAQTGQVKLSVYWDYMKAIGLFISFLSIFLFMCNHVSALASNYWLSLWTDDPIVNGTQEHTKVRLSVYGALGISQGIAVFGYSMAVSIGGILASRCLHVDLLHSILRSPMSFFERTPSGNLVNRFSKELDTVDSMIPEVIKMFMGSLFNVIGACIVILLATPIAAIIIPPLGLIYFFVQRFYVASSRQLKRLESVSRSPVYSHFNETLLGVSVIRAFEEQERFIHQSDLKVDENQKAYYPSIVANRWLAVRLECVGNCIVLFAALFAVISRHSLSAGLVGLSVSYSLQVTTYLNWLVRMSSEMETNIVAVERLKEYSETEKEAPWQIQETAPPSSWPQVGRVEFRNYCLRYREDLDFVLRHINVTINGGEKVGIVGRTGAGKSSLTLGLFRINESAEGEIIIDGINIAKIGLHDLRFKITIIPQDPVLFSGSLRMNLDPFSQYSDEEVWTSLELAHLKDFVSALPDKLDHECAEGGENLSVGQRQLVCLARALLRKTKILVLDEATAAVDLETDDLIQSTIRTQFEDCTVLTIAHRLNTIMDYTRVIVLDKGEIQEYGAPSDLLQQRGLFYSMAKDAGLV

As for `Cc1cc(Nc2ccc(F)cc2)n2ncnc2n1`, the viability at 72 h, 20 µM in [1] is 93.2%.
For `Cc1cc(Nc2c(F)cccc2F)n2nc(SCc3nc4ccccc4[nH]3)nc2n1`, the half-inhibitory concentration (IC50) in [2] turned out to be 790 nM.
For `Cc1cc(Nc2ccc(F)cc2)n2nc(SCc3nc4ccccc4[nH]3)nc2n1`, the TGI result in the data set with SW-620 [3] and with SW-620 [13] was “Active” in each case. Further, the Activity entry is reported as “Active” in data set [4]; “Not Active” in data set [8]; “Non-Toxic” in data set [14]; “Active” at Cytochrome P450 3A4; “Non-Toxic” in data set [21]; “Non-Toxic” in data set [23]. Also, the “fold change (FC)” value is reported as 1.5 in [5]; 1.29 in data set [7]; 1.05 in data set [9]; 1.52 in [16]; 2.5 in data set [17]; 1.5 in data set [19]. Also, the “fold change (FC)” value in [20] was determined as 1.3. Further, the result with SW-620 [6], in the data set on SW-620 [11] and in the data set with SW-620 [18] was inactive. Moreover, the inhibition result with SW-620 [10] was “Active”. Besides, the fold induction at 0.5 h, 20 µM at CYP3A4 turned out to be 1.06. In addition, the result with SW-620 [12] and with SW-620 [15] was Active. Further, in the data set on SW-620 [22], the TGI entry is “inactive”.
On to `CCc1cc(Nc2ccc(F)cc2)n2nc(SCc3ccccc3)nc2n1`, for which the IC50 in [2] turned out to be 1610 nM.
The same measure, in the same setting: the figure for `Cc1cc(Nc2ccc(O)c(Cl)c2)n2nc(SCc3nc4ccccc4[nH]3)nc2n1` is 3220 nM; for `Cc1cc(Nc2cc(F)c(F)cc2F)n2nc(SCc3nc4ccccc4[nH]3)nc2n1` it is 260 nM.
Same read-out and setting: the figure for `Cc1cc(Nc2ccccc2)n2nc(SCc3nc4ccccc4[nH]3)nc2n1` is 46 nM; for `N#Cc1c(Nc2cccc(Cl)c2)nc(SCC(=O)NC(=O)Nc2ccccn2)nc1-c1ccccc1` it is 5000 nM.
Same read-out and setting: next, `Cc1ccccc1Nc1nc(SCc2cn(Cc3ccc(Cl)cc3)nn2)nc(-c2ccccc2)c1C#N`: 36000 nM.
With `COc1ccc(CCN(C)CCCC(C#N)(c2ccc(OC)c(OC)c2)C(C)C)cc1OC` (stereo not given), in the data set with SW-620 [24], the result was inactive. Also, the TGI result in the data set with SW-620 [25] was “Active”.
`COc1ccc(CSc2nc3nc(C)cc(Nc4ccc(F)cc4)n3n2)cc1`: the concentration for half-maximal inhibition (IC50) in data set [2] was 1930 nM.
The same measure, in the same setting: next, `Cc1ccc(CSc2nc3nc(C)cc(Nc4ccc(F)cc4)n3n2)cc1`: 2040 nM.
